Data as given in article PMC8480901 (PLoS ONE, 2021).
Several values for one entry are separate records, joined by “and”; a condition that tells them apart may be missing. Equal entries are not always repeated. Entries after “also recorded” stand apart in the source; their conditions may differ.

What was measured:
[1] = tested on: LPS-induced lung neutrophilia; assay: LPS-induced lung neutrophilia: total and neutrophil cell counts in BALF; assay type: in vivo, BALB/c mice; conditions: for Neutrophils in BALF: % reduction / Total cells/white blood cells in BALF: % reduction / Neutrophils in BALF, Mean / Total cells/white blood cells in BALF, Mean / Neutrophils in BALF, individual mice / Total cells/white blood cells in BALF, individual mice: LPS; for Neutrophils in BALF, Mean / Total cells/white blood cells in BALF, Mean / Neutrophils in BALF, individual mice / Total cells/white blood cells in BALF, individual mice: BALF 4 h after LPS; for Neutrophils in BALF, individual mice / Total cells/white blood cells in BALF, individual mice: listed as Lef
Experimental: Six-week-old male BALB/c mice (Charles River, Calco, Italy) were singly housed in a temperature-controlled (22°C±2°C) environment with a 12:12-hour light:dark cycle and free access to food and water. Mice were given ≥7 days for acclimation before all procedures. […] One day before the start of experimental procedures, all animals were randomized into 6 groups (n = 8/group). Animal group assignment was not blinded.
LPS lyophilized powder (2 mg; Sigma-Aldrich Chemie GmbH, Munich, Germany) from Escherichia coli (O111:B4) was dissolved in 10 mL cold saline (0.9%; Pliva, Zagreb, Croatia), vortexed, and further diluted by mixing 2 mL of this solution with 2 mL saline to reach a final concentration of 5 μg LPS/50 μL saline. […] Ketamine hydrochloride (Narketan 10) was acquired from Vetoquinol (Bern, Switzerland), and xylazine hydrochloride (Rompun, 2%) was acquired from Bayer (Leverkusen, Germany).
To induce pulmonary neutrophilia, mice in the control group received intranasal (IN) 50 μL saline, and all other animals received 5 μg LPS/50 μL saline IN per mouse.
Tracheostomy was performed, and a Buster cat catheter (1.0 × 130 mm; Kruuse, Langeskov, Denmark), shortened to 3 cm, was clamped into the trachea. The lungs were washed 3 times with cold phosphate-buffered saline (PBS; Sigma-Aldrich Chemie GmbH) in a total volume of 1 mL (0.4, 0.3, and 0.3 mL). The collected BALF samples were centrifuged (1303×g, 5 min, 4°C), and resulting cell pellets were each resuspended in 600 μL PBS. Samples were immediately analyzed for total and differential neutrophil cell counts via automated hematology analyzer (XT-2000iV; Sysmex, Kobe, Japan).
Differences between treated versus vehicle groups were determined using the Mann-Whitney test and were considered statistically significant when P<0.05. Outliers in the analysis of cytokine and chemokine concentrations were identified using the Grubbs test. No criteria were set for inclusion/exclusion of animals during the experiment or data points during the analysis.

human PBMCs = assay: Cytotoxicity in human PBMCs (adenylate kinase release, ToxiLight); assay type: cell-based; conditions: for fold-change of adenylate kinase release at test concentration vs vehicle control, Mean ± SEM: human PBMCs, n=2
Experimental: The effect of t est compounds on cell viabilit y of J 774.2 macrophages and human PBMCs […]
was determined b y comp aring th e aden yl ate kinas e signal obtain ed in the p resence of diff er ent concentrations of compounds with those obtained in DMSO (vehicle) control. Signals were […]
divided,and the results were ex pressed as fold-change versus v ehicle con trol .

[2] = tested on: TNF-α, IL-6, IL-1β, GM-CSF, CXCL-1, CXCL-2, CCL-2 and MMP-9 in lung tissue; assay: LPS-induced cytokines, chemokines and MMP-9 in mouse lung homogenates (Luminex, ELISA)
Experimental: After bronchoalveolar lavage, lungs were removed, weighed, snap frozen, and stored at −80°C until analysis. To homogenize the tissue, the frozen lungs were thawed and placed in Precellys CK28 Hard Tissue tubes (BERTIN Instruments, Montigny-le-Bretonneux, France) in 1 mL PBS (Gibco, Life Technologies, Paisley, UK) supplemented with protease inhibitors (Halt™ Protease Inhibitor Cocktail [100×]; Thermo Fisher Scientific, Rockford, IL, USA). A Precellys homogenizer (BERTIN Instruments) was used, shaking at 6800 rpm for three 30-second pulses separated by 15-second pauses. After homogenization, samples were centrifuged at 18,000×g for 10 minutes at 4°C, and the supernatants were collected for analysis.
Concentrations of tumor necrosis factor (TNF)-α, IL-6, granulocyte-macrophage colony-stimulating factor (GM-CSF), chemokine (C-X-C motif) ligand (CXCL)-1, CXCL-2, and chemokine (C-C motif) ligand (CCL)-2 in mouse lung homogenates were analyzed with the Mouse Premixed Multi-Analyte Kit (R&D Systems, Minneapolis, MN, USA) per the manufacturer’s protocol and using a Luminex 200 System (Luminex Corporation, Austin, TX, USA). Cytokine and chemokine concentrations were determined from blank-corrected median fluorescence intensity of each sample via xPONENT® software (Luminex Corporation), interpolating from standard curves generated with a 5-parameter logistic curve-fit.
Mouse Total MMP (matrix metalloprotease)-9 and IL-1β/IL-1F2 DuoSet ELISA (enzyme-linked immunosorbent assay) kits (R&D Systems) were used to measure concentrations of MMP-9 and IL-1β, respectively, in lung homogenates per the manufacturer’s protocols. Absorbance at 450 nm was measured using the SpectraMax i3 (Molecular Devices, San Jose, CA, USA). Concentrations of MMP-9 and IL-1β in samples were determined by interpolation from standard curves.

[3] = Experiment 1, 10 mg/kg SC, 10 mg/kg
[4] = Experiment 1, 30 mg/kg SC, 30 mg/kg
[5] = Experiment 1, 100 mg/kg SC, 100 mg/kg
[6] = Experiment 2, 35 mg/kg SC, 35 mg/kg
[7] = Experiment 2, 70 mg/kg SC, 70 mg/kg
[8] = Experiment 2, 140 mg/kg SC, 140 mg/kg
[9] = all doses (10, 30, 100 mg/kg SC)
[10] = all doses tested (10, 30, 100 mg/kg SC), vs vehicle control

C=C[C@]1(C)C[C@@H](OC(=O)CS[C@@H]2CC[C@@H](N)C[C@H]2O)[C@]2(C)[C@H](C)CC[C@]3(CCC(=O)[C@H]32)[C@@H](C)[C@@H]1O [Lefamulin]
total cell and neutrophil recruitment to the lungs (measured in BALF) ([1]; 10, 30, and 100 mg/kg SC 30 min before intranasal LPS, 4 hours postchallenge, vs vehicle control): dose-dependent reduction; also recorded: almost complete reduction
Neutrophils in BALF: % reduction ([1]; Experiment 1, 10 mg/kg SC): 37%
Total cells/white blood cells in BALF: % reduction ([1]; Experiment 1, 10 mg/kg SC): 50%
Neutrophils in BALF, Mean ([1]; Experiment 1, 10 mg/kg SC): 3.3e+08 L⁻¹
Total cells/white blood cells in BALF, Mean ([1]; Experiment 1, 10 mg/kg SC): 5e+08 L⁻¹
Neutrophils in BALF, individual mice [1, 3]: 4.7e+08 L⁻¹ and 2.2e+08 L⁻¹ and 1.9e+08 L⁻¹ and 3.7e+08 L⁻¹ and 3.1e+08 L⁻¹ and 1e+08 L⁻¹ and 4.5e+08 L⁻¹ and 4.9e+08 L⁻¹
Total cells/white blood cells in BALF, individual mice [1, 3]: 6.6e+08 L⁻¹ and 5.9e+08 L⁻¹ and 6.1e+08 L⁻¹ and 3e+08 L⁻¹ and 5.1e+08 L⁻¹ and 6.3e+08 L⁻¹ and 5e+08 L⁻¹ and 1.7e+08 L⁻¹
Neutrophils in BALF: % reduction ([1]; Experiment 1, 30 mg/kg SC): 59%
Total cells/white blood cells in BALF: % reduction ([1]; Experiment 1, 30 mg/kg SC): 78%
Neutrophils in BALF, Mean ([1]; Experiment 1, 30 mg/kg SC): 2.2e+08 L⁻¹
Total cells/white blood cells in BALF, Mean ([1]; Experiment 1, 30 mg/kg SC): 4.2e+08 L⁻¹
Neutrophils in BALF, individual mice [1, 4]: 2.1e+08 L⁻¹ and 3.8e+08 L⁻¹ and 1.2e+08 L⁻¹ and 2.5e+08 L⁻¹ and 1.7e+08 L⁻¹ and 2.3e+08 L⁻¹ and 1.6e+08 L⁻¹
Total cells/white blood cells in BALF, individual mice [1, 4]: 2.7e+08 L⁻¹ and 3.7e+08 L⁻¹ and 3.5e+08 L⁻¹ and 6.6e+08 L⁻¹ and 2.6e+08 L⁻¹ and 3.9e+08 L⁻¹ and 3.8e+08 L⁻¹
Neutrophils in BALF: % reduction ([1]; Experiment 1, 100 mg/kg SC): 70%
Total cells/white blood cells in BALF: % reduction ([1]; Experiment 1, 100 mg/kg SC): 100%
Neutrophils in BALF, Mean ([1]; Experiment 1, 100 mg/kg SC): 1.6e+08 L⁻¹
Total cells/white blood cells in BALF, Mean ([1]; Experiment 1, 100 mg/kg SC): 3.5e+08 L⁻¹
Neutrophils in BALF, individual mice [1, 5]: 1.4e+08 L⁻¹ and 1.8e+08 L⁻¹ and 1.2e+08 L⁻¹ and 1.3e+08 L⁻¹ and 2.8e+08 L⁻¹ and 1.7e+08 L⁻¹
Total cells/white blood cells in BALF, individual mice [1, 5]: 3.3e+08 L⁻¹ and 2.4e+08 L⁻¹ and 3.1e+08 L⁻¹ and 3.4e+08 L⁻¹ and 2.3e+08 L⁻¹ and 3.9e+08 L⁻¹ and 6.6e+08 L⁻¹
Neutrophils in BALF: % reduction ([1]; Experiment 2, 35 mg/kg SC): 64%
Total cells/white blood cells in BALF: % reduction ([1]; Experiment 2, 35 mg/kg SC): 69%
Neutrophils in BALF, Mean ([1]; Experiment 2, 35 mg/kg SC): 2.2e+08 L⁻¹
Total cells/white blood cells in BALF, Mean ([1]; Experiment 2, 35 mg/kg SC): 5.5e+08 L⁻¹
Neutrophils in BALF, individual mice [1, 6]: 2e+08 L⁻¹ and 1.6e+08 L⁻¹ and 2.4e+08 L⁻¹ and 2.2e+08 L⁻¹ and 3.4e+08 L⁻¹ and 1.9e+08 L⁻¹ and 3.1e+08 L⁻¹ and 1.2e+08 L⁻¹
Total cells/white blood cells in BALF, individual mice [1, 6]: 9.1e+08 L⁻¹ and 2e+08 L⁻¹ and 7e+08 L⁻¹ and 4.4e+08 L⁻¹ and 4.6e+08 L⁻¹ and 3.7e+08 L⁻¹ and 7.3e+08 L⁻¹ and 5.5e+08 L⁻¹
Neutrophils in BALF: % reduction ([1]; Experiment 2, 70 mg/kg SC): 77%
Total cells/white blood cells in BALF: % reduction ([1]; Experiment 2, 70 mg/kg SC): 91%
Neutrophils in BALF, Mean ([1]; Experiment 2, 70 mg/kg SC): 1.5e+08 L⁻¹
Total cells/white blood cells in BALF, Mean ([1]; Experiment 2, 70 mg/kg SC): 4.3e+08 L⁻¹
Neutrophils in BALF, individual mice [1, 7]: 1.8e+08 L⁻¹ and 1.7e+08 L⁻¹ and 1.1e+08 L⁻¹ and 1e+08 L⁻¹ and 2.1e+08 L⁻¹ and 1.2e+08 L⁻¹ and 9e+07 L⁻¹
Total cells/white blood cells in BALF, individual mice [1, 7]: 4.6e+08 L⁻¹ and 2.1e+08 L⁻¹ and 4.3e+08 L⁻¹ and 4.4e+08 L⁻¹ and 3.3e+08 L⁻¹ and 3e+08 L⁻¹ and 5.8e+08 L⁻¹ and 6.7e+08 L⁻¹
Neutrophils in BALF: % reduction ([1]; Experiment 2, 140 mg/kg SC): 77%
Total cells/white blood cells in BALF: % reduction ([1]; Experiment 2, 140 mg/kg SC): 107%
Neutrophils in BALF, Mean ([1]; Experiment 2, 140 mg/kg SC): 1.5e+08 L⁻¹
Total cells/white blood cells in BALF, Mean ([1]; Experiment 2, 140 mg/kg SC): 3.4e+08 L⁻¹
Neutrophils in BALF, individual mice [1, 8]: 1.6e+08 L⁻¹ and 1.4e+08 L⁻¹ and 1.2e+08 L⁻¹ and 1.7e+08 L⁻¹ and 9e+07 L⁻¹ and 2e+08 L⁻¹
Total cells/white blood cells in BALF, individual mice [1, 8]: 4.6e+08 L⁻¹ and 3.9e+08 L⁻¹ and 2.6e+08 L⁻¹ and 2.9e+08 L⁻¹ and 3.6e+08 L⁻¹ and 3.3e+08 L⁻¹ and 4.4e+08 L⁻¹ and 2e+08 L⁻¹
cell viability (human PBMCs; PBMCs, 100 μM): reduced
fold-change of adenylate kinase release at test concentration vs vehicle control, Mean ± SEM (human PBMCs; 0.03 µM): 1.07 ± 0.03 fold-change
fold-change of adenylate kinase release at test concentration vs vehicle control, Mean ± SEM (human PBMCs; 0.1 µM): 1.04 ± 0.01 fold-change
fold-change of adenylate kinase release at test concentration vs vehicle control, Mean ± SEM (human PBMCs; 0.3 µM): 1.03 ± 0.02 fold-change
fold-change of adenylate kinase release at test concentration vs vehicle control, Mean ± SEM (human PBMCs; 1 µM): 1.00 ± 0.01 fold-change
fold-change of adenylate kinase release at test concentration vs vehicle control, Mean ± SEM (human PBMCs; 3 µM): 0.95 ± 0.01 fold-change
fold-change of adenylate kinase release at test concentration vs vehicle control, Mean ± SEM (human PBMCs; 10 µM): 0.93 ± 0.01 fold-change
fold-change of adenylate kinase release at test concentration vs vehicle control, Mean ± SEM (human PBMCs; 30 µM): 0.92 ± 0.03 fold-change
fold-change of adenylate kinase release at test concentration vs vehicle control, Mean ± SEM (human PBMCs; 100 µM): 1.20 ± 0.03 fold-change
levels of all cytokines and chemokines assessed, as well as of MMP-9, in lung homogenate ([2]; 10, 30, and 100 mg/kg SC, vs vehicle): significantly reduced
MMP-9 levels in lung homogenate ([2]; 30 and 100 mg/kg SC): Significant reductions
IL-1β concentrations in lung homogenate [2, 9]: dose-dependent effect
chemokines and GM-CSF in lung homogenate [2, 9]: Significant reductions
IL-6 concentrations in lung homogenate [2, 10]: significantly reduced
TNF-α concentrations in lung homogenate [2, 10]: significantly reduced
IL-1β concentrations in lung homogenate ([2]; highest dose, 100 mg/kg SC): significant inhibition
CCL2 % reduction ([2]; lung homogenate, LPS, 10 mg/kg): 93%
CXCL1 % reduction ([2]; lung homogenate, LPS, 10 mg/kg): 62%
CXCL2 % reduction ([2]; lung homogenate, LPS, 10 mg/kg): 73%
GM-CSF % reduction ([2]; lung homogenate, LPS, 10 mg/kg): 85%
IL-1β % reduction ([2]; lung homogenate, LPS, 10 mg/kg): -19%
IL-6 % reduction ([2]; lung homogenate, LPS, 10 mg/kg): 106%
MMP9 % reduction ([2]; lung homogenate, LPS, 10 mg/kg): 8%
TNFα % reduction ([2]; lung homogenate, LPS, 10 mg/kg): 79%
CCL2 ([2]; lung homogenate, LPS, 10 mg/kg, individual animal, listed as Lef): 1377.65 pg/mL and 537.39 pg/mL and 646.70 pg/mL and 438.83 pg/mL and 518.31 pg/mL and 1456.64 pg/mL and 908.74 pg/mL and 229.87 pg/mL
